Values of other authors in publication PMC10667676, “Pharmacokinetics and bioequivalence of sunitinib and Sutent® in Chinese healthy subjects: an open-label, randomized, crossover study” (Frontiers in Pharmacology, 2023).

Key:
CYP enzymes = settings: ref Zhou and Gallo, 2010; Kassem et al., 2012a
[1] = design: method as in Bello and e t al., 2006; settings: healthy subjects, high-fat, high-calorie diet, oral 50 mg; ref Bello and e t al., 2006

CCN(CC)CCNC(=O)c1c(C)[nH]c(/C=C2\C(=O)Nc3ccc(F)cc32)c1C [Sunitinib]
Inhibition or induction of CYP enzymes (CYP enzymes): unlikely to significantly inhibit or induce
AUC0-∞ [1]: 1489 (1276–1736) ng*h/mL
AUC0–t [1]: 1476 (1264–1724) ng*h/mL
Cmax [1]: 25.1 (21.1–29.7) ng/mL
Tmax [1]: 8.03 h
t1/2 [1]: 59.1 h
Elimination half-life (healthy subjects' plasma, no reference given): 40 to 60 h
Elimination through the feces, share of total administered dose (primary route of elimination, ref Adams and Leggas, 2007): 61%
Renal excretion, share of total administered dose (ref Adams and Leggas, 2007): 16%
Effect of food consumption on bioavailability (ref Bello and e t al., 2006): unaltered
